These results are taken from PubChem BioAssay (NCI).

Test systems include NCI-H226 lung; UO-31 renal; NCI-H522 lung; CAKI-1 renal; LOX IMVI melanoma; UACC-257 melanoma; SK-OV-3 ovarian; SK-MEL-5 melanoma.
What all share (assay): growth of human tumour cells (NCI), 48 h

Molecules are shown by their SMILES.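 Values below derive from 48-hour exposures of cells grown in 96-well plates, with endpoints linearly interpolated between the two concentrations bracketing the appropriate inhibition level. GI50 = concentration required for 50% inhibition of growth. TGI: total growth inhibition.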

Turning to `COC(=O)c1n[nH]c(C)c1N=NN(C)CCC#N`, the TGI is 35.8 µM in the assay on NCI-H226 lung; 13.3 µM in the assay with UO-31 renal; 25.1 µM in the assay on NCI-H522 lung; 33.4 µM in the assay on CAKI-1 renal; > 100 µM with LOX IMVI melanoma; > 100 µM with UACC-257 melanoma. The results for the TGI in the assay on SK-OV-3 ovarian and in the assay on SK-MEL-5 melanoma were 61.5 µM and 74.5 µM, respectively.
`CC(C)(Br)C(=O)N1CCN(C(c2ccccc2)c2ccccc2)CC1`: the TGI with NCI-H226 lung, in the assay on UO-31 renal, with NCI-H522 lung, in the assay with CAKI-1 renal, in the assay with LOX IMVI melanoma and in the assay with UACC-257 melanoma was > 100 µM throughout. In addition, the TGI with SK-OV-3 ovarian and in the assay with SK-MEL-5 melanoma was > 100 µM in each case.
Regarding `Fc1cc2[nH]ncc2c2c3c(c(-c4cn[nH]c4C(F)(F)F)nc12)CCCC3`, the GI50 in the assay with NCI-H226 lung is 2.64 µM; in the assay on UO-31 renal, 1.56 µM; in the assay on NCI-H522 lung, 1.62 µM; with CAKI-1 renal it was 1.81 µM; in the assay on LOX IMVI melanoma, 1.1 µM; in the assay with SK-MEL-5 melanoma it was 1.23 µM. Besides, the TGI in the assay with NCI-H226 lung was > 100 µM; in the assay on UO-31 renal, 6.02 µM; in the assay with NCI-H522 lung, 9.4 µM; in the assay on CAKI-1 renal it was 7.54 µM; in the assay with LOX IMVI melanoma, 3.05 µM; in the assay on SK-MEL-5 melanoma, 2.95 µM.
Regarding `CC(C)c1[nH]nc(C(N)=O)c1N=NN(C)C`, the TGI with NCI-H226 lung is 71.6 µM; in the assay with UO-31 renal it was 2.19 µM; in the assay with NCI-H522 lung, 67.8 µM; in the assay with CAKI-1 renal it was 65.4 µM; with LOX IMVI melanoma, > 100 µM; in the assay on UACC-257 melanoma, > 100 µM. The TGI with SK-OV-3 ovarian and with SK-MEL-5 melanoma was > 100 µM throughout.
Take `CC(N)C(Cc1ccc(Cl)cc1)c1ccc(Cl)cc1` (stereo not given): the GI50 in the assay on NCI-H226 lung was 17.5 µM; in the assay with UO-31 renal, 7.12 µM; with NCI-H522 lung, 11.4 µM; with CAKI-1 renal it was 11.8 µM; in the assay with LOX IMVI melanoma, 5.56 µM; with SK-OV-3 ovarian it was 16.8 µM. Also, the GI50 with SK-MEL-5 melanoma is 12.4 µM. Further, the TGI is 39.3 µM with NCI-H226 lung; 20.9 µM in the assay on UO-31 renal; 26.1 µM with NCI-H522 lung; 24.1 µM in the assay on CAKI-1 renal; 18.9 µM in the assay on LOX IMVI melanoma; 30.8 µM with SK-OV-3 ovarian. In the assay with SK-MEL-5 melanoma, the TGI was 25.1 µM.
`CCN(Cc1ccc(C)cc1)c1ccc(CO)c(Cl)c1`: the GI50 is 0.0702 µM in the assay on NCI-H226 lung; 3.81 µM in the assay with UO-31 renal; 11.5 µM in the assay with NCI-H522 lung; 0.721 µM with CAKI-1 renal; 7.05 µM with LOX IMVI melanoma; 0.134 µM in the assay on UACC-257 melanoma. The figures for the GI50 with SK-OV-3 ovarian and in the assay on SK-MEL-5 melanoma were 4.23 µM and 3.84 µM, respectively. In addition, the TGI was found to be 0.204 µM in the assay on NCI-H226 lung; 17.7 µM in the assay with UO-31 renal; 25.7 µM with NCI-H522 lung; 9.27 µM with CAKI-1 renal; 19.9 µM with LOX IMVI melanoma; 0.339 µM in the assay with UACC-257 melanoma. Further, the TGI in the assay on SK-OV-3 ovarian was 16.8 µM; in the assay on SK-MEL-5 melanoma, 17.7 µM.
`O=C1CSCc2sccc21`: the TGI with NCI-H226 lung, in the assay on UO-31 renal, with NCI-H522 lung, with CAKI-1 renal, in the assay with UACC-257 melanoma and in the assay on SK-OV-3 ovarian was > 100 µM throughout. Also, the TGI with SK-MEL-5 melanoma is > 100 µM.
Consider `Cc1cc2nc3c4cc(O)ccc4n(CCN(C)C)c3nc2cc1C`, for which the GI50 in the assay with NCI-H226 lung is 1.18 µM; in the assay with UO-31 renal, 0.292 µM; in the assay with NCI-H522 lung, 0.541 µM; in the assay on CAKI-1 renal, 0.337 µM; with UACC-257 melanoma it was 2.06 µM; with SK-OV-3 ovarian it was 1.8 µM. Also, in the assay with SK-MEL-5 melanoma, the GI50 is 1.59 µM. In addition, the TGI in the assay with NCI-H226 lung is 5.45 µM; in the assay on UO-31 renal, 2.07 µM; with NCI-H522 lung, 3.32 µM; with CAKI-1 renal, 2.11 µM; in the assay on UACC-257 melanoma it was 5.2 µM; in the assay with SK-OV-3 ovarian it was > 61 µM. In the assay on SK-MEL-5 melanoma, this molecule had a TGI of 2.97 µM.
For `COc1ccc2c(c1OC)C[C@@H]1c3c(cc4c(c3-2)OCO4)CCN1C`, the TGI is 47 µM with NCI-H226 lung; 45.4 µM in the assay on UO-31 renal; 62.9 µM in the assay on NCI-H522 lung; > 100 µM in the assay with CAKI-1 renal; 29.1 µM in the assay with LOX IMVI melanoma; 61 µM in the assay with UACC-257 melanoma. Also, the values for the TGI in the assay on SK-OV-3 ovarian and with SK-MEL-5 melanoma were 58.4 µM and 38.1 µM, respectively.
As for `COC[C@@H](N=C1NC(=O)/C(=C/c2ccc3ncccc3c2)S1)c1ccccc1`, the GI50 in the assay on NCI-H226 lung is 6.88 µM; in the assay on UO-31 renal, 6.7 µM; in the assay on NCI-H522 lung it was 7.7 µM; in the assay with CAKI-1 renal, 6.2 µM; in the assay on LOX IMVI melanoma it was 9.73 µM; in the assay on UACC-257 melanoma it was 8.09 µM. Besides, the GI50 in the assay with SK-OV-3 ovarian was 9.35 µM; in the assay on SK-MEL-5 melanoma it was 7.51 µM. For the same molecule, the TGI in the assay on NCI-H226 lung was > 25 µM; in the assay on UO-31 renal, > 25 µM; with NCI-H522 lung it was > 23.3 µM; in the assay with CAKI-1 renal, > 22.4 µM; with LOX IMVI melanoma, > 25 µM; in the assay with UACC-257 melanoma it was > 25 µM. For the same molecule, the TGI in the assay on SK-OV-3 ovarian is > 25 µM; in the assay on SK-MEL-5 melanoma it was 24.9 µM.
As to `c1ccc2sc(SCCSc3nc4ccccc4s3)nc2c1`, the TGI in the assay with UO-31 renal, with NCI-H522 lung, in the assay with CAKI-1 renal, in the assay on LOX IMVI melanoma, with UACC-257 melanoma and with SK-OV-3 ovarian was > 100 µM throughout.
For `Cc1cc(O)c(=O)cc2c1C[C@H]1CC(C)(C)/C=C/C[C@]3(C)Oc4cc(=O)c(O)cc(C)c4C[C@H]3C[C@H](O)[C@@]1(C)O2`, the GI50 was 0.0541 µM with NCI-H226 lung; 0.0213 µM in the assay on UO-31 renal; 0.0192 µM with NCI-H522 lung; 0.0225 µM with CAKI-1 renal; 0.0215 µM in the assay with UACC-257 melanoma; 0.0181 µM in the assay on SK-OV-3 ovarian. For the same molecule, the GI50 with SK-MEL-5 melanoma is 0.0166 µM. Moreover, the TGI in the assay on NCI-H226 lung was found to be 13.6 µM; in the assay on UO-31 renal it was 0.198 µM; in the assay on NCI-H522 lung it was 0.0853 µM; in the assay on UACC-257 melanoma, 0.0895 µM; in the assay on SK-OV-3 ovarian, 0.412 µM; with SK-MEL-5 melanoma, 0.0985 µM.
